Experimental findings from patent US10213433B2 (AbbVie Inc., priority 2010, dated 2019) are described below.

Some results are limits rather than exact numbers.

Chain of Bcl-2 protein (P10415 whole entry): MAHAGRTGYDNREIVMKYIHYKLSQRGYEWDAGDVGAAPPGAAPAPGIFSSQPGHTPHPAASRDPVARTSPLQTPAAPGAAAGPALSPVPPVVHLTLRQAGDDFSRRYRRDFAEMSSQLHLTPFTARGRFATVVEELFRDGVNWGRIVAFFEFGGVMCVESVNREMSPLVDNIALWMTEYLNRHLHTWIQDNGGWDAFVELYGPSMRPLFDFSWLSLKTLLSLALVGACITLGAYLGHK

For this test, the target named is Bcl-2 protein (Homo sapiens (Human), UniProt P10415). Put plainly: Bcl-2 binding TR-FRET (Time-Resolved Fluorescence-Resonance-Energy-Transfer) assay. The settings on record: inhibition constant for binding to Bcl-2 protein. An excerpt:
The smaller the Ki value, the greater is the binding affinity.
(TR-FRET usually uses a lanthanide donor and a delayed reading to cut background.)
As a reminder, the Ki is a dissociation constant, usually derived from enzyme kinetics or from competition with a known ligand. For `CC1(C)CCC(CN2CCN(c3ccc(C(=O)NS(=O)(=O)c4ccc(NCC5CCCN(S(C)(=O)=O)C5)c([N+](=O)[O-])c4)c(Oc4cnc5[nH]ccc5c4)c3)CC2)=C(c2ccc(Cl)cc2)C1` (stereo not drawn) [Compound 147, 4-(4-{[2-(4-chlorophenyl)-4,4-dimethylcyclohex-1-en-1-yl]methyl}piperazin-1-yl)-N-{[4-({[1-(methylsulfonyl)piperidin-3-yl]methyl}amino)-3-nitrophenyl]sulfonyl}-2-(1H-pyrrolo[2,3-b]pyridin-5-yloxy)benzamide], the inhibition constant (Ki) was less than 0.01 nM.

In the case of `CC1(C)CCC(CN2CCN(c3ccc(C(=O)NS(=O)(=O)c4ccc(NCCCN(C5CCC5)C5CC5)c([N+](=O)[O-])c4)c(Oc4cnc5[nH]ccc5c4)c3)CC2)=C(c2ccc(Cl)cc2)C1` [Compound 320, 4-(4-{[2-(4-chlorophenyl)-4,4-dimethylcyclohex-1-en-1-yl]methyl}piperazin-1-yl)-N-{[4-({3-[cyclobutyl(cyclopropyl)amino]propyl}amino)-3-nitrophenyl]sulfonyl}-2-(1H-pyrrolo[2,3-b]pyridin-5-yloxy)benzamide], the Ki is less than 0.01 nM.

In the case of `COC(=O)N1CCOC(CNc2ccc(S(=O)(=O)NC(=O)c3ccc(N4CCN(CC5=C(c6ccc(Cl)cc6)CC(C)(C)CC5)CC4)cc3Oc3cnc4[nH]ccc4c3)cc2[N+](=O)[O-])C1` (stereo not drawn) [Compound 317, methyl 2-{[(4-{[4-(4-{[2-(4-chlorophenyl)-4,4-dimethylcyclohex-1-en-1-yl]methyl}piperazin-1-yl)-2-(1H-pyrrolo[2,3-b]pyridin-5-yloxy)benzoyl]sulfamoyl}-2-nitrophenyl)amino]methyl}morpholine-4-carboxylate], the inhibition constant Ki was less than 0.01 nM.

`COCCOCCS(=O)(=O)c1ccc(S(=O)(=O)NC(=O)c2ccc(N3CCN(CC4=C(c5ccc(Cl)cc5)CC(C)(C)CC4)CC3)cc2Oc2cnc3[nH]ccc3c2)cc1Cl` [Compound 58, N-[(3-chloro-4-{[2-(2-methoxyethoxyl)ethyl]sulfonyl}phenyl)sulfonyl]-4-(4-{[2-(4-chlorophenyl)-4,4-dimethylcyclohex-1-en-1-yl]methyl}piperazin-1-yl)-2-(1H-pyrrolo[2,3-b]pyridin-5-yloxy)benzamide] came in with a Ki of less than 0.01 nM.

`C[C@]1(O)CC[C@@H](COc2ncc(S(=O)(=O)NC(=O)c3ccc(N4CCN(CC5=C(c6ccc(Cl)cc6)CC6(CC5)CC6)CC4)cc3Oc3cnc4[nH]ccc4c3)cc2Cl)CC1` [Compound 341, N-({5-chloro-6-[(trans-4-hydroxy-4-methylcyclohexyl)methoxy]pyridin-3-yl}sulfonyl)-4-(4-{[5-(4-chlorophenyl)spiro[2.5]oct-5-en-6-yl]methyl}piperazin-1-yl)-2-(1H-pyrrolo[2,3-b]pyridin-5-yloxy)benzamide] returned an inhibition constant Ki of less than 0.01 nM.

With `CN1CCN(Nc2ccc(S(=O)(=O)NC(=O)c3ccc(N4CCN(CC5=C(c6ccc(Cl)cc6)CC(C)(C)OC5)CC4)cc3Oc3cnc4[nH]ccc4c3)cc2[N+](=O)[O-])CC1` [Compound 67, 4-(4-{[4-(4-chlorophenyl)-6,6-dimethyl-5,6-dihydro-2H-pyran-3-yl]methyl}piperazin-1-yl)-N-({4-[(4-methylpiperazin-1-yl)amino]-3-nitrophenyl}sulfonyl)-2-(1H-pyrrolo[2,3-b]pyridin-5-yloxy)benzamide], the Ki is less than 0.01 nM.

In the case of `CC1(C)CCC(CN2CCN(c3ccc(C(=O)NS(=O)(=O)c4ccc(NC5CCN(C6CCC6)CC5)c([N+](=O)[O-])c4)c(Oc4cnc5[nH]ccc5c4)c3)CC2)=C(c2ccc(Cl)cc2)C1` [Compound 140, 4-(4-{[2-(4-chlorophenyl)-4,4-dimethylcyclohex-1-en-1-yl]methyl}piperazin-1-yl)-N-({4-[(1-cyclobutylpiperidin-4-yl)amino]-3-nitrophenyl}sulfonyl)-2-(1H-pyrrolo[2,3-b]pyridin-5-yloxy)benzamide], the Ki is less than 0.01 nM.

In turn, `CC1(C)CCC(CN2CCN(c3ccc(C(=O)NS(=O)(=O)c4ccc(NC[C@@H]5CN(C6CC6)CCO5)c([N+](=O)[O-])c4)c(Oc4cnc5[nH]ccc5c4)c3)CC2)=C(c2ccc(Cl)cc2)C1` [Compound 326, 4-(4-{[2-(4-chlorophenyl)-4,4-dimethylcyclohex-1-en-1-yl]methyl}piperazin-1-yl)-N-{[4-({[(2R)-4-cyclopropylmorpholin-2-yl]methyl}amino)-3-nitrophenyl]sulfonyl}-2-(1H-pyrrolo[2,3-b]pyridin-5-yloxy)benzamide] came in with an inhibition constant (Ki) of less than 0.01 nM.

`CC1(C)CCC(CN2CCN(c3ccc(C(=O)NS(=O)(=O)c4ccc(NCC5(F)CCOCC5)c([N+](=O)[O-])c4)c(Oc4cnc5[nH]ccc5c4)c3)CC2)=C(c2ccc(Cl)cc2)C1` [Compound 138, 4-(4-{[2-(4-chlorophenyl)-4,4-dimethylcyclohex-1-en-1-yl]methyl}piperazin-1-yl)-N-[(4-{[(4-fluorotetrahydro-2H-pyran-4-yl)methyl]amino}-3-nitrophenyl)sulfonyl]-2-(1H-pyrrolo[2,3-b]pyridin-5-yloxy)benzamide] had a Ki of less than 0.01 nM.

`O=C(NS(=O)(=O)c1ccc(OCC2(F)CCOCC2)c([N+](=O)[O-])c1)c1ccc(N2CCN(CC3=C(c4ccc(Cl)cc4)CCC4(CCCC4)C3)CC2)cc1Oc1cnc2[nH]ccc2c1` [Compound 73, 4-(4-{[8-(4-chlorophenyl)spiro[4.5]dec-7-en-7-yl]methyl}piperazin-1-yl)-N-({4-[(4-fluorotetrahydro-2H-pyran-4-yl)methoxy]-3-nitrophenyl}sulfonyl)-2-(1H-pyrrolo[2,3-b]pyridin-5-yloxy)benzamide] returned a Ki of less than 0.01 nM.

On to `COCCN1CCOC(CNc2ccc(S(=O)(=O)NC(=O)c3ccc(N4CCN(CC5=C(c6ccc(Cl)cc6)CC(C)(C)CC5)CC4)cc3Oc3cnc4[nH]ccc4c3)cc2[N+](=O)[O-])C1` (stereo not drawn) [Compound 135, 4-(4-{[2-(4-chlorophenyl)-4,4-dimethylcyclohex-1-en-1-yl]methyl}piperazin-1-yl)-N-{[4-({[4-(2-methoxyethyl)morpholin-2-yl]methyl}amino)-3-nitrophenyl]sulfonyl}-2-(1H-pyrrolo[2,3-b]pyridin-5-yloxy)benzamide], for which the Ki is less than 0.01 nM.

As for `CC1(C)CCC(CN2CCN(c3ccc(C(=O)NS(=O)(=O)c4ccc(OCC5(F)CCN(S(C)(=O)=O)CC5)c([N+](=O)[O-])c4)c(Oc4cnc5[nH]ccc5c4)c3)CC2)=C(c2ccc(Cl)cc2)C1` [Compound 194, 4-(4-{[2-(4-chlorophenyl)-4,4-dimethylcyclohex-1-en-1-yl]methyl}piperazin-1-yl)-N-[(4-{[4-fluoro-1-(methylsulfonyl)piperidin-4-yl]methoxy}-3-nitrophenyl)sulfonyl]-2-(1H-pyrrolo[2,3-b]pyridin-5-yloxy)benzamide], the Ki is less than 0.01 nM.

Compound `CC1(C)CCC(CN2CCN(c3ccc(C(=O)NS(=O)(=O)c4ccc(N[C@@H]5CCOC5)c([N+](=O)[O-])c4)c(Oc4cnc5[nH]ccc5c4)c3)CC2)=C(c2ccc(Cl)cc2)C1` [Compound 238, 4-(4-{[2-(4-chlorophenyl)-4,4-dimethylcyclohex-1-en-1-yl]methyl}piperazin-1-yl)-N-({3-nitro-4-[(3R)-tetrahydrofuran-3-ylamino]phenyl}sulfonyl)-2-(1H-pyrrolo[2,3-b]pyridin-5-yloxy)benzamide] had a Ki of less than 0.01 nM.

For the compound `O=C(NS(=O)(=O)c1ccc(NCC2CCOCC2)c([N+](=O)[O-])c1)c1ccc(N2CCN(CC3=C(c4ccc(Cl)cc4)CCC(F)(F)C3)CC2)cc1Oc1cnc2[nH]ccc2c1` [Compound 321, 4-(4-{[2-(4-chlorophenyl)-5,5-difluorocyclohex-1-en-1-yl]methyl}piperazin-1-yl)-N-({3-nitro-4-[(tetrahydro-2H-pyran-4-ylmethyl)amino]phenyl}sulfonyl)-2-(1H-pyrrolo[2,3-b]pyridin-5-yloxy)benzamide], the inhibition constant (Ki) was less than 0.01 nM.

Consider `CC1(C)CCC(CN2CCN(c3ccc(C(=O)NS(=O)(=O)c4ccc(OCC5(F)CCN(C6CCOC6)CC5)c([N+](=O)[O-])c4)c(Oc4cnc5[nH]ccc5c4)c3)CC2)=C(c2ccc(Cl)cc2)C1` (stereo not drawn) [Compound 193, 4-(4-{[2-(4-chlorophenyl)-4,4-dimethylcyclohex-1-en-1-yl]methyl}piperazin-1-yl)-N-({4-[(4-fluoro-1-tetrahydrofuran-3-ylpiperidin-4-yl)methoxy]-3-nitrophenyl}sulfonyl)-2-(1H-pyrrolo[2,3-b]pyridin-5-yloxy)benzamide], for which the inhibition constant Ki was less than 0.01 nM.

Turning to `CC1(C)CCC(CN2CCN(c3ccc(C(=O)NS(=O)(=O)c4ccc(NC[C@@H]5CC[C@H](O)C5)c([N+](=O)[O-])c4)c(Oc4cnc5[nH]ccc5c4)c3)CC2)=C(c2ccc(Cl)cc2)C1` [Compound 159, 4-(4-{[2-(4-chlorophenyl)-4,4-dimethylcyclohex-1-en-1-yl]methyl}piperazin-1-yl)-N-{[4-({[(1R,3S)-3-hydroxycyclopentyl]methyl}amino)-3-nitrophenyl]sulfonyl}-2-(1H-pyrrolo[2,3-b]pyridin-5-yloxy)benzamide], the Ki is less than 0.01 nM.

Take `CC(=O)N1CCC(CNc2ccc(S(=O)(=O)NC(=O)c3ccc(N4CCN(CC5=C(c6ccc(Cl)cc6)CC(C)(C)CC5)CC4)cc3Oc3cnc4[nH]ccc4c3)cc2[N+](=O)[O-])C1` (stereo not drawn) [Compound 153, N-[(4-{[(1-acetylpyrrolidin-3-yl)methyl]amino}-3-nitrophenyl)sulfonyl]-4-(4-{[2-(4-chlorophenyl)-4,4-dimethylcyclohex-1-en-1-yl]methyl}piperazin-1-yl)-2-(1H-pyrrolo[2,3-b]pyridin-5-yloxy)benzamide]: the inhibition constant (Ki) was less than 0.01 nM.

`CC1(C)CCC(CN2CCN(c3ccc(C(=O)NS(=O)(=O)c4cnc(OCC5(F)CCN(CC(F)F)CC5)c(Cl)c4)c(Oc4cnc5[nH]ccc5c4)c3)CC2)=C(c2ccc(Cl)cc2)C1` [Compound 285, N-[(5-chloro-6-{[1-(2,2-difluoroethyl)-4-fluoropiperidin-4-yl]methoxy}pyridin-3-yl)sulfonyl]-4-(4-{[2-(4-chlorophenyl)-4,4-dimethylcyclohex-1-en-1-yl]methyl}piperazin-1-yl)-2-(1H-pyrrolo[2,3-b]pyridin-5-yloxy)benzamide] registered an inhibitory constant (Ki) of less than 0.01 nM.
